Experiment [1] concerns IL-1β release upon NLRP3 activation in peripheral blood mononuclear cells (PBMC). The experiment in a line: PBMC IC50 Determination Assay. The class given is cell-based. The following applies: Homo sapiens; inhibition of IL-1β release; PBMC primed with LPS, stimulated with ATP or nigericin; ELISA or HTRF. On the procedure:
The compounds of the present disclosure were tested for their inhibitory activity against IL-1β release upon NLRP3 activation in peripheral blood mononuclear cells (PBMC).
Protocol A. PBMC were isolated from buffy coats by density gradient centrifugation on Histopaque-1077 (Sigma, cat no. 10771). Isolated cells were seeded into the wells of a 96-well plate and incubated for 3 h with lipopolysaccharide (LPS). Following medium exchange, the compounds of the present disclosure were added (a single compound per well) and the cells were incubated for 30 min. Next, the cells were stimulated either with ATP (5 mM) or nigericin (10 μM) for 1 h and the cell culture media from the wells were collected for further analysis.
The release of IL-1β into the media was determined by a quantitative detection of IL-1β in the media using an IL-1β enzyme-linked immunosorbent assay (ELISA) Ready-SET-Go!, eBioscience cat. No. 88-7261-88. Briefly, in a first step, high affinity binding plates (Corning, Costar 9018 or NUNC Maxisorp Cat No. 44-2404) were coated overnight at 4° C. with specific capture antibody included in the kit (anti-human IL-1β ref. 14-7018-68). Subsequently, plates were blocked with blocking buffer for 1 h at room temperature (rt) and after washing with a buffer (PBS with 0.05% Tween-20) incubated with protein standard and culture media. After 2 h of incubation at rt, plates were washed and incubated with biotinylated detection antibody included in the kit (anti-human IL-1β Biotin ref. 33-7110-68) for 1 h at rt. Plates were washed and incubated with HRP-streptavidin for 30 min at rt and washed again. The signal was developed after addition of 3,3′,5,5′-tetramethylbenzidine-peroxidase (TMB) until colour appeared and the reaction was stopped by 2 M H2SO4. A microplate spectrophotometer (BioTek) was used to detect signals with 450 nm. The detection range of IL-1β ELISA was […].
Protocol B. PBMC were isolated from buffy coats by density gradient centrifugation on Histopaque-1077 (Sigma, cat no. 10771). Isolated cells were seeded into the wells (280,000 cells/well) of a 96-well plate and incubated for 3 h with lipopolysaccharide (LPS, 1 μg/mL diluted 1000× from a 1 mg/mL stock solution). The compounds of the present disclosure were added (a single compound per well) and the cells were incubated for 30 min. Next, the cells were stimulated with ATP (5 mM final concentration diluted 20× from a 100 mM stock solution) for 1 h and the cell culture media from the wells were collected for further analysis.
The release of IL-1β into the media was determined by quantitative detection of IL-1β in the media using HTRF®, CisBio cat. No. 62HIL1BPEH. Briefly, cell culture supernatant were dispensed directly into the assay plate containing antibodies labelled with the HTRF® donor and acceptor. A microplate spectrophotometer (BMG) was used to detect signals at 655 nm and 620 nm. The detection range of IL-1β HTRF® was 39-6500 pg/mL.
For orientation: ELISA stands for enzyme-linked immunosorbent assay.

For experiment [2], the system named is IL-1β release upon NLRP3 activation in phorbol 12-myristate 13-acetate (PMA)-differentiated THP-1 cells. The experiment in a line: THP-1 IC50 Determination Assay. The experiment is classed as cell-based. The settings on record: Homo sapiens, inhibition of IL-1β release, LPS, nigericin, ELISA. On the procedure: The compounds of the present disclosure were tested for their inhibitory activity against IL-1β release upon NLRP3 activation in phorbol 12-myristate 13-acetate (PMA)-differentiated THP-1 cells.
THP-1 cells stored in liquid nitrogen were thawed in a 37° C. water bath. The cells were added into complete RPMI 1640 medium (FBS (56 mL), 100× Penicillin-Streptomycin (5.6 mL) and 0.05 mM 2-Mercaptoethanol in RPMI 1640 Medium (500 mL)) and centrifuged for 5 min at 1000 rpm. The supernatant was discarded and the cells resuspended into new cell culture medium for culturing. Cells were cultured in cell culture medium and passaged every 3-4 days to maintain cell density between 4×10^5 and 1.5×10^6 cells/mL. The cells were diluted to 0.8×10^6 cells/mL and grown in a T150 flask with PMA (final concentration 5 ng/mL). The flask was incubated in a 37° C. incubator with a humidified atmosphere of 5% CO2 for −40 hours. After −40 hours of PMA differentiation, the flask was washed with DPBS. Cells were digested with Trypsin LE for about 5 min at room temperature, and digestion was terminated using complete RPMI 1640 medium. Cells were centrifuged and resuspended (1000 rpm, 3 min). The supernatant was discarded and cells washed with DPBS, centrifuged and resuspended cells (1000 rpm, 5 min). Cells were plated at 30,000 cells/well in a 384-well PP plate and treated with 25 ng/mL LPS solution diluted in serum-free medium (45 μL). The plate was incubated in a 37° C. incubator with a humidified atmosphere of 5% CO2 for 2 hours. Compounds (from 10 mM DMSO solution) were dispensed and serially diluted by 1:3 eight times, with final 0.5% DMSO concentration. NLRP3 inflammasome was activated with nigericin (5 μL), the plate was centrifuged (1000 rpm, 30 s) and incubated in a 37° C. incubator with a humidified atmosphere of […] for 2 hours. 35 μL/well of supernatant was removed and IL-1β levels determined by ELISA assay (Mabtech 3416-1H-20) according to the manufacturer's instructions.

pIC50: −log10 of the molar value. Counter-ions that a name gives are not always drawn.

The pIC50 is the IC50 on a negative log10 scale, so that one unit is a factor of ten. Lower therefore signals a high IC50.

In the case of `Cc1cc(Cl)cc(O)c1-c1cc2ccn(CC3CCN(S(C)(=O)=O)CC3)c2nn1` [Compound 31, 5-Chloro-2-{7-[(1-methanesulfonylpiperidin-4-yl)methyl]-7H-pyrrolo[2,3-c]pyridazin-3-yl}-3-methylphenol], the pIC50 in experiment [1] and in experiment [2] was 6.52 to 7.00 each time.
In the case of `Cc1cc(Cl)cc(O)c1-c1cc2ccn(CC(=O)N(C)C)c2nn1` [Compound 32, 2-[3-(4-Chloro-2-hydroxy-6-methylphenyl)-7H-pyrrolo[2,3-c]pyridazin-7-yl]-N,N-dimethylacetamide], the pIC50 in experiment [1] and in experiment [2] was 6.52 to 7.00 in each case.
`Cc1cc(Cl)cc(O)c1-c1cc2ccn(CCN3CCCC(F)C3)c2nn1` (stereo not shown) [Compound 33, 5-Chloro-2-{7-[2-(3-fluoropiperidin-1-yl)ethyl]-7H-pyrrolo[2,3-c]pyridazin-3-yl}-3-methylphenol hydrochloride]: the pIC50 is 7.00 to 7.52 in experiment [1] and 6.00 to 6.52 in experiment [2].
With `Cc1cc(Cl)cc(O)c1-c1cc2ccn(CC3CN(C)CCO3)c2nn1` (stereo not shown) [Compound 34, 5-Chloro-3-methyl-2-{7-[(4-methylmorpholin-2-yl)methyl]-7H-pyrrolo[2,3-c]pyridazin-3-yl}phenol hydrochloride], the pIC50 in experiment [1] and in experiment [2] was 6.00 to 6.52 in each case.
Take `Cc1cc(Cl)cc(O)c1-c1cc2ccn(CC3CCN(C)CC3(F)F)c2nn1` (stereo not shown) [Compound 35, 5-Chloro-2-{7-[(3,3-difluoro-1-methylpiperidin-4-yl)methyl]-7H-pyrrolo[2,3-c]pyridazin-3-yl}-3-methylphenol hydrochloride]: the pIC50 in experiment [1] was 6.52 to 7.00; in experiment [2], 6.00 to 6.52.
In the case of `Cc1cc(Cl)cc(O)c1-c1cc2ccn(CC(=O)N3CCCCC3)c2nn1` [Compound 36, 2-[3-(4-Chloro-2-hydroxy-6-methylphenyl)-7H-pyrrolo[2,3-c]pyridazin-7-yl]-1-(piperidin-1-yl)ethan-1-one], the negative-log IC50 (pIC50) in experiment [1] and in experiment [2] was 6.00 to 6.52 throughout.
For `Cc1cc(Cl)cc(O)c1-c1cc2ccn(CC3CCOCC3)c2nn1` [Compound 37, 5-Chloro-3-methyl-2-{7-[(oxan-4-yl)methyl]-7H-pyrrolo[2,3-c]pyridazin-3-yl}phenol], the results for the pIC50 in experiment [1] and in experiment [2] were 6.52 to 7.00 and 6.00 to 6.52, respectively.
For `Cc1cc(Cl)cc(O)c1-c1cc2ccn(CCN3CCCCC3)c2nn1` [Compound 38, 5-Chloro-3-methyl-2-{7-[2-(piperidin-1-yl)ethyl]-7H-pyrrolo[2,3-c]pyridazin-3-yl}phenol hydrochloride], in that order: 6.00 to 6.52 and 6.00 to 6.52.
Taken in the same sequence, the figures for `Cc1cc(Cl)cc(O)c1-c1cc2ccn(CC3CCCN3C)c2nn1` (stereo not shown) [Compound 39, 5-Chloro-3-methyl-2-{7-[(1-methylpyrrolidin-2-yl)methyl]-7H-pyrrolo[2,3-c]pyridazin-3-yl}phenol hydrochloride] were 6.52 to 7.00 and 6.00 to 6.52.
For `Cc1cc(Cl)cc(O)c1-c1cc2ccn(CCN3CCCC3=O)c2nn1` [Compound 40, 1-{2-[3-(4-Chloro-2-hydroxy-6-methylphenyl)-7H-pyrrolo[2,3-c]pyridazin-7-yl]ethyl}pyrrolidin-2-one], in that order: 5.52 to 6.00 and 5.52 to 6.00.
Regarding `Cc1cc(Cl)cc(O)c1-c1cc2ccn(CC3COCCN3C)c2nn1` (stereo not shown) [Compound 41, 5-Chloro-3-methyl-2-{7-[(4-methylmorpholin-3-yl)methyl]-7H-pyrrolo[2,3-c]pyridazin-3-yl}phenol hydrochloride], the pIC50 was 6.52 to 7.00 in experiment [1] and 6.00 to 6.52 in experiment [2].
Taken in the same sequence, the figures for `Cc1cc(Cl)cc(O)c1-c1cc2ccn(CC3CCCOC3)c2nn1` (stereo not shown) [Compound 42, 5-Chloro-3-methyl-2-{7-[(oxan-3-yl)methyl]-7H-pyrrolo[2,3-c]pyridazin-3-yl}phenol] were 6.52 to 7.00 and 6.00 to 6.52.
For `Cc1cc(Cl)cc(O)c1-c1cc2ccn(CC3CCCO3)c2nn1` (stereo not shown) [Compound 43, 5-Chloro-3-methyl-2-{7-[(oxolan-2-yl)methyl]-7H-pyrrolo[2,3-c]pyridazin-3-yl}phenol], in that order: 6.52 to 7.00 and 6.52 to 7.00.
Taken in the same sequence, the figures for `CC(=O)NCCn1ccc2cc(-c3c(C)cc(Cl)cc3O)nnc21` [Compound 44, N-{2-[3-(4-Chloro-2-hydroxy-6-methylphenyl)-7H-pyrrolo[2,3-c]pyridazin-7-yl]ethyl}acetamide] were 6.00 to 6.52 and 6.00 to 6.52.
As to `Cc1cc(Cl)cc(O)c1-c1cc2ccn(CCN3CCC(=O)C3)c2nn1` [Compound 45, 1-{2-[3-(4-Chloro-2-hydroxy-6-methylphenyl)-7H-pyrrolo[2,3-c]pyridazin-7-yl]ethyl}pyrrolidin-3-one], the negative logarithm of the IC50 (pIC50) in experiment [1] and in experiment [2] was 6.00 to 6.52 in each case.
For the compound `Cc1cc(Cl)cc(O)c1-c1cc2ccn(C[C@@H]3CCCCN3C)c2nn1` [Compound 46, 5-Chloro-3-methyl-2-(7-{[(2S)-1-methylpiperidin-2-yl]methyl}-7H-pyrrolo[2,3-c]pyridazin-3-yl)phenol hydrochloride], the pIC50 in experiment [1] was 7.00 to 7.52; in experiment [2] it was 6.52 to 7.00.
Taken in the same sequence, the figures for `Cc1cc(Cl)cc(O)c1-c1cc2ccn(C[C@H]3CCCCN3C)c2nn1` [Compound 47, 5-Chloro-3-methyl-2-(7-{[(2R)-1-methylpiperidin-2-yl]methyl}-7H-pyrrolo[2,3-c]pyridazin-3-yl)phenol hydrochloride] were 6.52 to 7.00 and 6.00 to 6.52.
Consider `Cc1cc(Cl)cc(O)c1-c1cc2ccn(CC3COC3)c2nn1` [Compound 48, 5-Chloro-3-methyl-2-{7-[(oxetan-3-yl)methyl]-7H-pyrrolo[2,3-c]pyridazin-3-yl}phenol], for which the pIC50 in experiment [1] and in experiment [2] was 6.52 to 7.00 each time.
As for `Cc1cc(Cl)cc(O)c1-c1cc2ccn(CC3CCN(C)C4(CC4)C3)c2nn1` (stereo not shown) [Compound 49, 5-Chloro-3-methyl-2-[7-({4-methyl-4-azaspiro[2.5]octan-7-yl}methyl)-7H-pyrrolo[2,3-c]pyridazin-3-yl]phenol hydrochloride], the pIC50 is 6.52 to 7.00 in experiment [1] and 6.00 to 6.52 in experiment [2].
For `Cc1cc(Cl)cc(O)c1-c1cc2ccn(C(=O)N3CCN(C)CC3)c2nn1` [Compound 50, 5-Chloro-3-methyl-2-[7-(4-methylpiperazine-1-carbonyl)-7H-pyrrolo[2,3-c]pyridazin-3-yl]phenol hydrochloride], in that order: 5.00 to 5.52 and 6.00 to 6.52.

The record behind these values is patent US20250206745A1, “PYRROLOPYRIDAZINE DERIVATIVES AND RELATED USES” (NodThera Limited, priority 2023, published 2025).
